Laboratory results taken from the supplement of paper PMC10627819.

Columns and labels:
S. pneumoniae D39V [1] = test: fitness (endpoint OD595 vs no drug) (fraction); higher = more growth
How it was run: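 In 384-well plates at 37 °C, cultures began at OD595 0.01 in 30 µl, with 55 µl used for S. pneumoniae. OD595 readings every 30 min for 14 h were corrected by the first reading. Fitness divides the stationary-phase transition optical density by the robust mean of no-drug control wells. The result is capped at 1.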

B. subtilis 168 = test: Bliss interaction score (quartile over a dose matrix) (fitness difference); higher = more antagonism (negative = synergy)
How it was run: (§1)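 Quartiles summarise the Bliss score over technical, biological and donor/recipient replicates, where the score is observed minus expected fitness under a product model. Expected fitness uses single-drug values inferred from combination data. Fitness is OD595 at entry into stationary phase over the plate's robust no-drug mean, capped at 1.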

S. aureus DSM 20231 = test: as above
How it was run: as §1

S. aureus Newman = test: as above
How it was run: as §1

S. pneumoniae D39V [2] = test: as above
How it was run: as §1
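Wherever Bliss interaction score (quartile over a dose matrix) is given: first quartile when negative (synergy) and third quartile when positive (antagonism).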

O=C1CN(/N=C/c2ccc([N+](=O)[O-])o2)C(=O)N1 [Nitrofurantoin] + COc1ccc(C[C@H](N)C(=O)N[C@H]2[C@@H](O)[C@H](n3cnc4c(N(C)C)ncnc43)O[C@@H]2CO)cc1 [Puromycin]
fitness, S. pneumoniae D39V [1]
Details | partner 1 µg/mL | partner 2 µg/mL | partner 4 µg/mL
first compound 1.285 µg/mL | 0.989 | 0.966 | 0.808
first compound 2.57 µg/mL | 0.947 | 0.901 | 0.742

fitness, S. pneumoniae D39V [1], one replicate
Details | first compound 2 µg/mL | first compound 4 µg/mL | first compound 5.14 µg/mL | first compound 8 µg/mL
partner 1 µg/mL | 0.901 | 0.899 | 0.905 | 0.652
partner 2 µg/mL | 0.821 | 0.915 | 0.88 | 0.711
partner 4 µg/mL | 0.757 | 0.767 | 0.592 | 0.38

Details | Bliss interaction score
B. subtilis 168 | 0.1
S. aureus DSM 20231 | 0.0289
S. aureus Newman | 0.098
S. pneumoniae D39V [2] | -0.135

O=C1CN(/N=C/c2ccc([N+](=O)[O-])o2)C(=O)N1 [Nitrofurantoin] + C[n+]1ccc(-c2cc[n+](C)cc2)cc1 [Paraquat]
fitness, S. pneumoniae D39V [1]
Details | partner 1.5 µg/mL | partner 3 µg/mL | partner 6 µg/mL
first compound 1.285 µg/mL | 0.949 | 0.959 | 0.941
first compound 2.57 µg/mL | 0.961 | 0.953 | 0.945

fitness, S. pneumoniae D39V [1], one replicate
Details | first compound 2 µg/mL | first compound 4 µg/mL | first compound 5.14 µg/mL | first compound 8 µg/mL
partner 1.5 µg/mL | 0.988 | 0.983 | 0.909 | 0.859
partner 3 µg/mL | 0.965 | 0.968 | 0.927 | 0.871
partner 6 µg/mL | 0.981 | ≥ 1 | 0.894 | 0.909

Details | Bliss interaction score
B. subtilis 168 | 0.0514
S. aureus DSM 20231 | 0.0244
S. aureus Newman | 0.0529
S. pneumoniae D39V [2] | 0.0462

O=C1CN(/N=C/c2ccc([N+](=O)[O-])o2)C(=O)N1 [Nitrofurantoin] + Cc1cc(NS(=O)(=O)c2ccc(N)cc2)no1 [Sulfamethoxazol]
fitness, S. pneumoniae D39V [1]
Details | partner 1 µg/mL | partner 2 µg/mL | partner 4 µg/mL
first compound 1.285 µg/mL | 0.952 | 0.957 | 0.91
first compound 2.57 µg/mL | 0.942 | 0.948 | 0.944

fitness, S. pneumoniae D39V [1], one replicate
Details | first compound 2 µg/mL | first compound 4 µg/mL | first compound 5.14 µg/mL | first compound 8 µg/mL
partner 1 µg/mL | 0.937 | 0.944 | 0.92 | 0.805
partner 2 µg/mL | 0.929 | 0.934 | 0.929 | 0.833
partner 4 µg/mL | 0.842 | 0.859 | 0.927 | 0.768

Details | Bliss interaction score
B. subtilis 168 | 0.0955
S. aureus DSM 20231 | -0.0311
S. aureus Newman | 0.0591
S. pneumoniae D39V [2] | 0.049

O=C1CN(/N=C/c2ccc([N+](=O)[O-])o2)C(=O)N1 [Nitrofurantoin] + Cc1onc(-c2ccccc2)c1C(=O)N[C@@H]1C(=O)N2[C@@H]1SC(C)(C)[C@@H]2C(=O)O [Oxacillin]
fitness, S. pneumoniae D39V [1]
Details | first compound 1.285 µg/mL | first compound 2 µg/mL | first compound 2.57 µg/mL | first compound 4 µg/mL | first compound 8 µg/mL
partner 0.01 µg/mL | 0.955 | 0.928 | 0.958 | 0.932 | 0.802
partner 0.02 µg/mL | 0.959 | 0.873 | 0.944 | 0.864 | 0.798
partner 0.04 µg/mL | 0.761 | 0.475 | 0.754 | 0.531 | 0.53

S. pneumoniae D39V [1], first compound 5.14 µg/mL, one replicate
Details | fitness
partner 0.01 µg/mL | 0.955
partner 0.02 µg/mL | 0.967
partner 0.04 µg/mL | 0.795

Details | Bliss interaction score
B. subtilis 168 | 0.0329
S. aureus DSM 20231 | -0.0421
S. aureus Newman | 0.0474
S. pneumoniae D39V [2] | 0.162

O=C1CN(/N=C/c2ccc([N+](=O)[O-])o2)C(=O)N1 [Nitrofurantoin] + Cn1nnc(-c2ccc(-c3ccc(N4C[C@H](CO)OC4=O)cc3F)cn2)n1 [Tedizolid]
fitness, S. pneumoniae D39V [1]
Details | first compound 1.285 µg/mL | first compound 2 µg/mL | first compound 2.57 µg/mL | first compound 4 µg/mL | first compound 8 µg/mL
partner 0.03125 µg/mL | – | 0.948 | – | 0.957 | 0.951
partner 0.0625 µg/mL | – | 0.893 | – | 0.915 | 0.859
partner 0.125 µg/mL | 0.805 | 0.767 | 0.812 | 0.775 | 0.771
partner 0.25 µg/mL | 0.724 | – | 0.676 | – | –
partner 0.5 µg/mL | 0.258 | – | 0.217 | – | –

S. pneumoniae D39V [1], first compound 5.14 µg/mL, one replicate
Details | fitness
partner 0.125 µg/mL | 0.791
partner 0.25 µg/mL | 0.589
partner 0.5 µg/mL | 0.18

Details | Bliss interaction score
B. subtilis 168 | -0.0546
S. aureus DSM 20231 | -0.0543
S. aureus Newman | -0.0562
S. pneumoniae D39V [2] | -0.141

C/C(=C\C(=O)OCCCCCCCCC(=O)O)C[C@@H]1OC[C@H](C[C@@H]2O[C@H]2[C@@H](C)[C@H](C)O)[C@@H](O)[C@H]1O [Pseudomonic acid] + CO[C@H]1/C=C/O[C@@]2(C)Oc3c(C)c(O)c4c(O)c(c(/C=N/N5CCN(C)CC5)c(O)c4c3C2=O)NC(=O)/C(C)=C\C=C\[C@H](C)[C@H](O)[C@@H](C)[C@@H](O)[C@@H](C)[C@H](OC(C)=O)[C@@H]1C [Rifampicin]
S. pneumoniae D39V [1], partner 0.025 µg/mL, one replicate
Details | fitness
first compound 0.03 µg/mL | 0.872
first compound 0.06 µg/mL | 0.79
first compound 0.12 µg/mL | 0.742

S. pneumoniae D39V [1], first compound 0.12 µg/mL
Details | fitness
partner 0.05 µg/mL | 0.608
partner 0.2 µg/mL | 0.136

Details | Bliss interaction score
B. subtilis 168 | 0.0416
S. aureus DSM 20231 | 0.0229
S. aureus Newman | -0.0134
S. pneumoniae D39V [2] | 0.14
